Literature values in patent US20260284237A1, “RADIOLABELED FAPI COMPLEX, AND PREPARATION METHOD THEREFOR AND USE THEREOF” (BEIJING NORMAL UNIVERSITY, priority 2023, published 2026).

Tests used:
[1] = background statement
[2] = system: FAP; conditions: background statement

## N#C[C@@H]1CC(F)(F)CN1C(=O)CNC(=O)c1ccnc2ccc(OCCCN3CCN(C(=O)CN4CCN(CC(=O)O)CCN(CC(=O)O)CCN(CC(=O)O)CC4)CC3)cc12 [FAPI-04]
[1]
  tumor uptake as radiotherapeutic drug: relatively low tumor uptake
[2]
  affinity and specificity toward the FAP: favorable affinity and specificity toward the FAP
